Reference: article PMC4344907 (International journal of pharmaceutics, 2014)
Where “and” joins values, the source holds several entries; their conditions need not be identical. Equal entries are not always repeated. Where a SMILES comes first, the peptide text is derived from it. [ ]: non-standard residue; d: D form. Sar = CNCC(=O)O

Legend:
peptide transporters [1] = assay: [3H]-GlySar uptake in MDCK-MDR1 cells; assay type: cell-based; settings: cold GlySar 10 mM, DPBS pH 7.4, 37 °C
peptide transporters [2] = assay: [3H]-GlySar uptake in MDCK-MRP2 cells; assay type: cell-based; settings: cold GlySar 10 mM, DPBS pH 7.4, 37 °C
MDCK-WT cells = assay: Cytotoxicity, MTS based assay, 4 h incubation; assay type: cell-based
P-gp = P-gp (Homo sapiens, UniProt P08183); assay: [3H]-LPV cellular uptake in MDCK-MDR1 cells; assay type: cell-based; settings: compound 50 μM, DPBS pH 7.4, 37 °C, 30 min
MRP2 [3] = molecular target: T1, MRP2 (Homo sapiens, UniProt Q92887); assay: [3H]-LPV cellular uptake in MDCK-MRP2 cells; assay type: cell-based; settings: compound 50 μM, DPBS pH 7.4, 37 °C, 30 min
[4] = A-B transepithelial transport across MDCK-MDR1 cells; assay type: in vitro ADME; settings: dog, MDCK-MDR1, pH 7.4
[5] = A-B transepithelial transport across MDCK-MRP2 cells; assay type: in vitro ADME; settings: dog, pH 7.4
[6] = A-B transepithelial transport across Caco2 cells; assay type: in vitro ADME; settings: human, Caco-2, pH 5
metabolizing enzymes [7] = assay: Time dependent degradation in rat liver microsomes; assay type: in vitro ADME; settings: rat liver microsomes 0.3 mg/mL, 25 μM, 37 °C, 2 h
metabolizing enzymes [8] = assay: Concentration dependent degradation in rat liver microsomes; assay type: in vitro ADME; settings: rat liver microsomes 0.3 mg/mL, 5 min, Michaelis-Menten fit
MDCK-MDR1 cells = settings: ref Patel et al., 2014b; cited from earlier work
MDCK-MRP2 cells = settings: ref Patel et al., 2014b; cited from earlier work
MRP2 [9] = molecular target: T1, MRP2; assay: Non-radiolabelled uptake of Val-Ile-LPV in MDCK-MRP2 cells with MRP2 inhibitor; assay type: cell-based; settings: DPBS pH 7.4, 37 °C
metabolizing enzymes [10] = settings: liver microsomes; ref Agarwal et al., 2008; cited from earlier work

T1 sequence (Q92887 whole entry): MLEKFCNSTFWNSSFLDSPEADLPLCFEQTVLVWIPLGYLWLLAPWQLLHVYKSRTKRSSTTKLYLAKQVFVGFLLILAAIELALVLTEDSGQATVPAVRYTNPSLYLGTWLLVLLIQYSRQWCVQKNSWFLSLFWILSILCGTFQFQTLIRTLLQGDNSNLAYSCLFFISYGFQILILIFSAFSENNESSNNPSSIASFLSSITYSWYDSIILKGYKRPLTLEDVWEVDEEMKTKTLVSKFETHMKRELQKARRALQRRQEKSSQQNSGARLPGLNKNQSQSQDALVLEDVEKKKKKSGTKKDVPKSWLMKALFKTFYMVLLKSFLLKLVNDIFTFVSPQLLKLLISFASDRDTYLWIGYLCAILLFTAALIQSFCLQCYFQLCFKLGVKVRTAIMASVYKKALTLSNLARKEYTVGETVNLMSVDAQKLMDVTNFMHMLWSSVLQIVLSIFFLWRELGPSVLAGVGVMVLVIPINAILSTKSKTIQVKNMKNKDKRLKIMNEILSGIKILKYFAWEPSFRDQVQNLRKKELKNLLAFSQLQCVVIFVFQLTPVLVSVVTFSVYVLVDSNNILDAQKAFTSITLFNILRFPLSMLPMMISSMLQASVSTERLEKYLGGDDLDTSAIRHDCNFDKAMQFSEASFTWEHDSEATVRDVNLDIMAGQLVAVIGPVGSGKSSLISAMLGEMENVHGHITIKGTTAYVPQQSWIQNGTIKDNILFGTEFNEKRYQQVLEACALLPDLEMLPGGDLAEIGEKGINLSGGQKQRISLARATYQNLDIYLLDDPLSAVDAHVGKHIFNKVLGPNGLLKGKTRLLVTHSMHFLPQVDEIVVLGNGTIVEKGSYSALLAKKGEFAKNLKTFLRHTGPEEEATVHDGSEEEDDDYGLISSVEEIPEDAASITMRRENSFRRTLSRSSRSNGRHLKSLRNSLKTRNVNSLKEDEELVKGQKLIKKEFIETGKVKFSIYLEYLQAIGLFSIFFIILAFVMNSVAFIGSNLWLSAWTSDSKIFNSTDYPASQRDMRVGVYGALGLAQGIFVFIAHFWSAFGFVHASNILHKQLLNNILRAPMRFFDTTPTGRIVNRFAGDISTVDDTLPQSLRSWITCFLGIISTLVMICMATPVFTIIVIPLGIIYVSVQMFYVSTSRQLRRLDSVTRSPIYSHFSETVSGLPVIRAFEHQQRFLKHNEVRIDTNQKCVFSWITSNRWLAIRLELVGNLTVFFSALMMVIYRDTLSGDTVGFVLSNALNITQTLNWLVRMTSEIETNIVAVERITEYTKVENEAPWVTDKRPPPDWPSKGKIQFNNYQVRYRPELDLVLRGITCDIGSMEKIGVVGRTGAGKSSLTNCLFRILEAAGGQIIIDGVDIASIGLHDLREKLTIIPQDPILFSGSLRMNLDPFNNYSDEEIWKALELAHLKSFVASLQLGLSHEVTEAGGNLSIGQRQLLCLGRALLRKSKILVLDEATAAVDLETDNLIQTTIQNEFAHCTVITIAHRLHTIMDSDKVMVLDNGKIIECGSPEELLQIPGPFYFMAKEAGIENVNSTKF
Sequence of P-gp (P08183 whole entry): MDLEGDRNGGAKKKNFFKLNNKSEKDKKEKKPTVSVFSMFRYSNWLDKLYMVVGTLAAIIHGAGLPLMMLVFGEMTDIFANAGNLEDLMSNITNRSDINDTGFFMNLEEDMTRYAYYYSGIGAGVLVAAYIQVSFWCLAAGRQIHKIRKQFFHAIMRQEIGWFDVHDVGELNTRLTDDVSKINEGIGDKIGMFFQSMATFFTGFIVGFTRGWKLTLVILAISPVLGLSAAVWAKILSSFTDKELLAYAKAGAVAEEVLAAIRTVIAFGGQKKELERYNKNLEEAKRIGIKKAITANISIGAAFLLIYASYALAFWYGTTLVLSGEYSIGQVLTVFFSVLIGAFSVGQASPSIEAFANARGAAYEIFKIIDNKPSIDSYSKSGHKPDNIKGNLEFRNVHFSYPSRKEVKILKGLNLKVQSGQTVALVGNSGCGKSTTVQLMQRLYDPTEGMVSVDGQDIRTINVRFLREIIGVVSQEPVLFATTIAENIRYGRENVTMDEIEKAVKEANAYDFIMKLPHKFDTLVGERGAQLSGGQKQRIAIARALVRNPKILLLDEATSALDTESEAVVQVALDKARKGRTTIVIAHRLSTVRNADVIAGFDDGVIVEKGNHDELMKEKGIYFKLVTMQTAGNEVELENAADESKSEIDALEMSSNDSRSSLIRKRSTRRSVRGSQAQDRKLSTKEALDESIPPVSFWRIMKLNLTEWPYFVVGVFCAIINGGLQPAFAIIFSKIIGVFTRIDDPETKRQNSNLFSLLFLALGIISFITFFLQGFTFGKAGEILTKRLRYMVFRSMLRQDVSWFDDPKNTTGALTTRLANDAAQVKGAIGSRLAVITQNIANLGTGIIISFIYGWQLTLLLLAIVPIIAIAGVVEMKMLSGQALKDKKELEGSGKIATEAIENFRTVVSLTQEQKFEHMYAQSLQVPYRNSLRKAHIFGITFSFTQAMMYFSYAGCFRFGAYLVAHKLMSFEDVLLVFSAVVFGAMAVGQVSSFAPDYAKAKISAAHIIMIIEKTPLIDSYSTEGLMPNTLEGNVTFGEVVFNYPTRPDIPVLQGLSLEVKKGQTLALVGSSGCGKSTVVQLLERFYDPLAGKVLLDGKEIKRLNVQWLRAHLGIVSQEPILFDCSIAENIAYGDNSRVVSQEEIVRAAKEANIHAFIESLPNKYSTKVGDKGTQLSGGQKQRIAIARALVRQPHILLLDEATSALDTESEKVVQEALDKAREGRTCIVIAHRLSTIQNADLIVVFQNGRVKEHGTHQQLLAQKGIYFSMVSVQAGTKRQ

Compound: CN(CC(=O)O)C(=O)CN [GlySar] (H-Gly-[Sar]-OH)
- Reduction in [3H]-GlySar uptake (peptide transporters [1]): ~80%
- Reduction in [3H]-GlySar uptake (peptide transporters [2]): ~80%

Compound: Cc1cccc(C)c1OCC(=O)N[C@@H](Cc1ccccc1)[C@@H](O)C[C@H](Cc1ccccc1)NC(=O)[C@H](C(C)C)N1CCCNC1=O [LPV, lopinavir]
- Enhancement of [3H]-LPV uptake in the presence of unlabelled compound (P-gp): 3.2 fold
- Enhancement of [3H]-LPV uptake in the presence of unlabelled compound (MRP2 [3]): 2.5 fold
- Papp A→B at 3 h, 25 μM [5]: 2.7 ×10⁻⁶ cm/s
- Papp A→B at 3 h, 25 μM [6]: 2.6 ×10⁻⁶ cm/s
- Degradation rate constant in liver microsomes (metabolizing enzymes [7]): 6.0 ± 0.5 × 10^−3 min^−1 and 3.3 ± 0.3 × 10^−3 min^−1
- Vmax (metabolizing enzymes [8]): 8.1 ± 0.4 nmoles/min/mg protein
- Apparent permeability, secretive (B-A) direction (MDCK-MDR1 cells): 5.8 ± 0.5 × 10^−6 cm/s
- Secretive (B-A) permeability (MDCK-MRP2 cells): 6.0 ± 0.1 × 10^−6 cm/s

Compound: CN(C)C(=O)CCSC(SCCC(=O)O)c1cccc(/C=C/c2ccc3ccc(Cl)cc3n2)c1 (centres unmarked) [MK 571]
- Uptake as % control (Val-Ile-LPV) (MRP2 [9]; uptake of Val-Ile-LPV 50 μM in the presence of MK 571 25 μM): 104 ± 4 % control
- Uptake as % control (Val-Ile-LPV) (MRP2 [9]; uptake of Val-Ile-LPV 50 μM in the presence of MK 571 75 μM): 102 ± 2 % control

Compound: Cc1cccc(C)c1OCC(=O)NC(Cc1ccccc1)C(CC(Cc1ccccc1)NC(=O)C(C(C)C)N1CCCNC1=O)OC(=O)C(NC(=O)CN)C(C)C (centres unmarked) [glycine-valine-LPV]
- Metabolic stability, fold increase relative to LPV (metabolizing enzymes [10]): 2.44 fold

Compound: Cc1cccc(C)c1OCC(=O)NC(Cc1ccccc1)C(CC(Cc1ccccc1)NC(=O)C(C(C)C)N1CCCNC1=O)OC(=O)C(NC(=O)C(N)C(C)C)C(C)C (centres unmarked) [valine-valine-LPV]
- Metabolic stability, fold increase relative to LPV (metabolizing enzymes [10]): 1.48 fold

Compound: Triton-X
- Reduction in absorbance relative to control (MDCK-WT cells; 0.1%, positive control): 90%
